Results as given in US12421211B2, “Heterocyclic compounds” (Hoffmann-La Roche Inc., priority 2021, dated 2025).
Values after ≈ are worked out from the molar mass of the structure shown. Where a name gives a salt, the structure may show the parent alone. Read-outs that look alike come from different tables or passages of the source.

Key:
[1] = test system: Acinetobacter baumannii ATCC17978; assay: Minimal Inhibitory Concentration (MIC) assay; assay type: cell-based; details: read-out: MIC AB. ATCC17978
Method: Minimal Inhibitory Concentration Protocol (MIC) Assay:
Table 2 provides the in vitro potency of the compounds of present invention obtained against the strain Acinetobacter baumannii ATCC17978, which was assessed by an MIC (Minimal Inhibitory Concentration) assay as follows.
Test compounds were prepared from 10 mM DMSO stock solutions. The top dose was diluted from 10 mM to 2.5 mM by DMSO, followed by serial 2-fold 11 points dilutions in DMSO in a master plate (Greiner, Cat No: 651201). 2 μL compounds were transferred from the master plate into a new 96-well assay plate (Costar, 3599).
The growth medium […] Mueller Hinton Broth (CAMHIB) was prepared by adding 22 g powder (BD, 212322) in 1 L purified water, autoclaved, and supplemented with sterilized CaCl2 (20 mg per liter) and MgCl2 (10 mg per liter).
Vials of each of the test microorganisms were maintained frozen in the vapor phase of a liquid nitrogen freezer. Took out the bacterial strain ATCC 17978 from liquid nitrogen freezer, thawed it at room temperature, and diluted the bacterial in the CAMHB medium to achieve a final inoculum of 2×10^5 CFU/mL. 98 μL of the adjusted bacteria suspension was dispensed to the assay plate and pipetted 5 times.
Then the assay plates were incubated for 20 hours at 35±2° C. in ambient air with humidity. Following incubation, MIC […] value, the lowest concentration of drug that inhibits visible growth of the microorganism, was recorded by visual judgment of bacterial growth through magnification mirror of MIC reader, and the assay plates were photographed with Qcount system as image raw data. Meanwhile, the D600 of assay plates was recorded with SpectraMax Plus384 as GD raw data.

[2] = test system: Acinetobacter baumannii ATCC17961; assay: Antimicrobial susceptibility testing: 90% growth inhibitory concentration (IC90) determination; assay type: cell-based; details: read-out: ATCC 17961 IC90
Procedure, shortened: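 A. baumannii ATCC17961 at ~5×10^5 CFU/ml in Iso-Sensitest broth exposed to 10-point twofold dilutions (e.g. 50–0.097 μM final), 35±2° C. OD600 read every 20 minutes over 16h; IC50 and IC90 derived from inhibition during logarithmic growth.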

[3] = Acinetobacter baumannii ATCC17978, CAMHB medium, 20 hours at 35±2° C., visual reading
[4] = Acinetobacter baumannii, ATCC17961, 16 h
[5] = Acinetobacter baumannii, ATCC17961, 16 h, 90% growth inhibitory concentration, Acinetobacter baumannii ATCC17961, Iso-Sensitest broth, OD 600 nm over 16 h

Compound: COCCn1nc(C)c(-c2ccc(-c3cnc(C(=O)Nc4ccc(C(=O)N5CCN(C(=O)C[N+]6(C)C[C@@H](N)[C@H](OC)C6)CC5)c(Cl)c4)n3C)c(F)c2F)c1C (mixture of isomers) [Example C13, N-[4-[4-[2-[(3R,4R)-3-amino-4-methoxy-1-methyl-pyrrolidin-1-ium-1-yl]acetyl]piperazine-1-carbonyl]-3-chloro-phenyl]-5-[2,3-difluoro-4-[1-(2-methoxyethyl)-3,5-dimethyl-pyrazol-4-yl]phenyl]-1-methyl-imidazole-2-carboxamide; formic acid; formate]
- MIC [1, 3]: 1.22 µM

Compound: COCCn1ncc(-c2ccc(-c3cnc(C(=O)Nc4ccc(C(=O)N5CCN(C(=O)C6CC[N+](C)(CCS(N)(=O)=O)CC6)CC5)c(Cl)c4)n3C)c(F)c2F)c1C (centres unmarked) [Example B34, N-[3-chloro-4-[4-[1-methyl-1-(2-sulfamoylethyl)piperidin-1-ium-4-carbonyl]piperazine-1-carbonyl]phenyl]-5-[2,3-difluoro-4-[1-(2-methoxyethyl)-5-methyl-pyrazol-4-yl]phenyl]-1-methyl-imidazole-2-carboxamide; formate]
- MIC ([1]; Acinetobacter baumannii, ATCC17978, 20 h): 0.65 µM

Compound: Cc1n[nH]cc1-c1ccc(-c2cnc(C(=O)Nc3ccc(C(=O)N4CCN(C(=O)[C@@H]5C[C@@H](O)C[N+]5(C)C)CC4)c(Cl)c3)n2C)c(F)c1F [Example D19, N-[3-chloro-4-[4-[(2S,4R)-4-hydroxy-1,1-dimethyl-pyrrolidin-1-ium-2-carbonyl]piperazine-1-carbonyl]phenyl]-5-[2,3-difluoro-4-(3-methyl-1H-pyrazol-4-yl)phenyl]-1-methyl-imidazole-2-carboxamide; formate]
- MIC [1, 3]: 1.07 µM

Compound: Cc1c(-c2ccc(-c3cnc(C(=O)Nc4ccc(C(=O)N5CCN(C(=O)C6CCNCC6)CC5)c(Cl)c4)n3C)c(F)c2F)cnn1CC(F)F [Example E1, N-[3-chloro-4-[4-(piperidine-4-carbonyl)piperazine-1-carbonyl]phenyl]-5-[4-[1-(2,2-difluoroethyl)-5-methyl-pyrazol-4-yl]-2,3-difluoro-phenyl]-1-methyl-imidazole-2-carboxamide]
- MIC [1, 3]: 0.56 µM (≈ 0.4 µg/mL)

Compound: COCCn1ncc(-c2ccc(-c3cnc(C(=O)Nc4ccc(C(=O)N5CCN(C(=O)CCC[N+](CCCCN)(CCCCN)CC(=O)O)CC5)c(Cl)c4)n3C)c(F)c2F)c1C [Example P2, bis(4-aminobutyl)-(carboxymethyl)-[4-[4-[2-chloro-4-[[5-[2,3-difluoro-4-[1-(2-methoxyethyl)-5-methyl-pyrazol-4-yl]phenyl]-1-methyl-imidazole-2-carbonyl]amino]benzoyl]piperazin-1-yl]-4-oxo-butyl]ammonium; formate]
- IC90 [2, 4]: 0.066 µM

Compound: COCCn1ncc(-c2ccc(-c3cnc(C(=O)Nc4ccc(C(=O)N5CCN(C(=O)CCC[N+](C)(CCCN)CCCN)CC5)c(Cl)c4)n3C)c(F)c2F)c1C [Example P3, bis(3-aminopropyl)-[4-[4-[2-chloro-4-[[5-[2,3-difluoro-4-[1-(2-methoxyethyl)-5-methyl-pyrazol-4-yl]phenyl]-1-methyl-imidazole-2-carbonyl]amino]benzoyl]piperazin-1-yl]-4-oxo-butyl]-methyl-ammonium; formate]
- IC90 [2, 5]: 0.293 µM

Compound: COCCn1ncc(-c2ccc(-c3cnc(C(=O)Nc4ccc(C(=O)N5CCN(C(=O)CCC[N+](CCN(C)C)(CCN(C)C)CC(=O)O)CC5)c(Cl)c4)n3C)c(F)c2F)c1C [Example P4, carboxymethyl-[4-[4-[2-chloro-4-[[5-[2,3-difluoro-4-[1-(2-methoxyethyl)-5-methyl-pyrazol-4-yl]phenyl]-1-methyl-imidazole-2-carbonyl]amino]benzoyl]piperazin-1-yl]-4-oxo-butyl]-bis[2-(dimethylamino)ethyl]ammonium; 2,2,2-trifluoroacetate]
- IC90 [2, 5]: 0.657 µM

Compound: COCCn1ncc(-c2ccc(-c3cnc(C(=O)Nc4ccc(C(=O)N5CCN(C(=O)CCCC(=O)N6CC[N+](CCCN)(CC(=O)O)CC6)CC5)c(Cl)c4)n3C)c(F)c2F)c1C [Example P5, 2-[1-(3-aminopropyl)-4-[5-[4-[2-chloro-4-[[5-[2,3-difluoro-4-[1-(2-methoxyethyl)-5-methyl-pyrazol-4-yl]phenyl]-1-methyl-imidazole-2-carbonyl]amino]benzoyl]piperazino]-5-keto-pentanoyl]piperazin-1-ium-1-yl]acetic acid; formate]
- IC90 [2, 5]: 0.295 µM

Compound: COCCn1ncc(-c2ccc(-c3cnc(C(=O)Nc4ccc(C(=O)N5CCN(C(=O)CCCC(=O)N6CC[N+](CC(=O)O)(CC7CNC7)CC6)CC5)c(Cl)c4)n3C)c(F)c2F)c1C [Example P6, 2-[1-(azetidin-3-ylmethyl)-4-[5-[4-[2-chloro-4-[[5-[2,3-difluoro-4-[1-(2-methoxyethyl)-5-methyl-pyrazol-4-yl]phenyl]-1-methyl-imidazole-2-carbonyl]amino]benzoyl]piperazino]-5-keto-pentanoyl]piperazin-1-ium-1-yl]acetic acid; 1:1 formate]
- IC90 [2, 5]: 0.31 µM

Compound: COCCn1cc(-c2ccc(-c3cnc(C(=O)Nc4ccc(C(=O)N5CCN(C(=O)C6CC[N+]7(CCNC(=O)C7)CC6)CC5)c(Cl)c4)n3C)c(F)c2F)c(C)n1 (centres unmarked) [Example Q1, N-[3-chloro-4-[4-(4-oxo-3-aza-6-azoniaspiro[5.5]undecane-9-carbonyl)piperazine-1-carbonyl]phenyl]-5-[2,3-difluoro-4-[1-(2-methoxyethyl)-3-methyl-pyrazol-4-yl]phenyl]-1-methyl-imidazole-2-carboxamide; 2,2,2-trifluoroacetate]
- IC90 [2, 4]: 0.165 µM

Compound: COCCn1cc(-c2ccc(-c3cnc(C(=O)Nc4ccc(C(=O)N5CCN(C(=O)C6CC[N+]7(CC6)CCN(Cc6ccccc6)CC7)CC5)c(Cl)c4)n3C)c(F)c2F)c(C)n1 [Example Q2, N-[4-[4-(3-benzyl-3-aza-6-azoniaspiro[5.5]undecane-9-carbonyl)piperazine-1-carbonyl]-3-chloro-phenyl]-5-[2,3-difluoro-4-[1-(2-methoxyethyl)-3-methyl-pyrazol-4-yl]phenyl]-1-methyl-imidazole-2-carboxamide]
- IC90 [2, 4]: 0.705 µM

Compound: COCCn1cc(-c2ccc(-c3cnc(C(=O)Nc4ccc(C(=O)N5CCN(C(=O)[C@H]6CC[N@@+](CC(=O)O)(CC7CNC7)CC6)CC5)c(Cl)c4)n3C)c(F)c2F)c(C)n1 [Example Q3, trans 2-[1-(azetidin-3-ylmethyl)-4-[4-[2-chloro-4-[[5-[2,3-difluoro-4-[1-(2-methoxyethyl)-3-methyl-pyrazol-4-yl]phenyl]-1-methyl-imidazole-2-carbonyl]amino]benzoyl]piperazine-1-carbonyl]piperidin-1-ium-1-yl]acetic acid; formate]
- IC90 [2, 4]: 0.359 µM

Compound: COCCn1cc(-c2ccc(-c3cnc(C(=O)Nc4ccc(C(=O)N5CCN(C(=O)[C@H]6CC[N@+](CC(=O)O)(CC7CNC7)CC6)CC5)c(Cl)c4)n3C)c(F)c2F)c(C)n1 [Example Q4, cis 2-[1-(azetidin-3-ylmethyl)-4-[4-[2-chloro-4-[[5-[2,3-difluoro-4-[1-(2-methoxyethyl)-3-methyl-pyrazol-4-yl]phenyl]-1-methyl-imidazole-2-carbonyl]amino]benzoyl]piperazine-1-carbonyl]piperidin-1-ium-1-yl]acetic acid formate;]
- IC90 [2, 4]: 0.195 µM

Compound: cis 2-[1-(azetidin-3-ylmethyl)-4-[4-[2-chloro-4-[[5-[3-fluoro-4-[1-(2-methoxyethyl)-3-methyl-pyrazol-4-yl]phenyl]-1-methyl-imidazole-2-carbonyl]amino]benzoyl]piperazine-1-carbonyl]piperidin-1-ium-1-yl]acetic acid; 2,2,2-trifluoroacetate [Example O7]
- IC90 ([2]; 90% growth inhibitory concentration, Acinetobacter baumannii ATCC17961, Iso-Sensitest broth, OD 600 nm over 16 h): 0.14 µM
